PubChem BioAssay AID2060909 (Molecular Pharmacology Branch, DTP, NCI, 2025)
Each block holds one compound with its values, some of them ahead of it.

Tested on: 362531-283-R-J2-PDC complex spheroid viability
Experiment: Anticancer human tumor 362531-283-R-J2-PDC patient-derived colon adenocarcinoma cell line growth inhibition [RAS]
Conditions: for viability, T/C: stronger effect = lower value
Method in brief: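 Multi-cell-type spheroids: tumor cells plus HUVEC endothelial cells and mesenchymal stem cells. RAS-pathway inhibitors were combined with targeted agents, each dosed in half-log steps down from clinical Cmax, or from 10 microM when Cmax was unknown.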

[1] = curve of first compound, second compound 0.000949 µM
[2] = curve of first compound, second compound 0.003 µM
[3] = curve of first compound, second compound 0.00949 µM
[4] = curve of first compound, second compound 0.03 µM
[5] = curve of first compound, second compound 0.0949 µM
[6] = curve of first compound, second compound 0.3 µM
[7] = second compound 0.000949 µM, first compound 0.0316 µM
[8] = second compound 0.000949 µM, first compound 0.1 µM
[9] = second compound 0.000949 µM, first compound 0.316 µM
[10] = second compound 0.000949 µM, first compound 1 µM
[11] = second compound 0.003 µM, first compound 0.0316 µM
[12] = second compound 0.003 µM, first compound 0.1 µM
[13] = second compound 0.003 µM, first compound 0.316 µM
[14] = second compound 0.003 µM, first compound 1 µM
[15] = second compound 0.00949 µM, first compound 0.0316 µM
[16] = second compound 0.00949 µM, first compound 0.1 µM
[17] = second compound 0.00949 µM, first compound 0.316 µM
[18] = second compound 0.00949 µM, first compound 1 µM
[19] = second compound 0.03 µM, first compound 0.0316 µM
[20] = second compound 0.03 µM, first compound 0.1 µM
[21] = second compound 0.03 µM, first compound 0.316 µM
[22] = second compound 0.03 µM, first compound 1 µM
[23] = second compound 0.0949 µM, first compound 0.0316 µM
[24] = second compound 0.0949 µM, first compound 0.1 µM
[25] = second compound 0.0949 µM, first compound 0.316 µM
[26] = second compound 0.0949 µM, first compound 1 µM
[27] = second compound 0.3 µM, first compound 0.0316 µM
[28] = second compound 0.3 µM, first compound 0.1 µM
[29] = second compound 0.3 µM, first compound 0.316 µM
[30] = second compound 0.3 µM, first compound 1 µM
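Also: spheroids exposed to the agents for 7 days before readout.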
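For viability, T/C in this document: luminescence viability as percent of DMSO vehicle control wells.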

IC50 (curve of first compound, second compound 0.0316 µM): 5180 nM
IC50 (curve of first compound, second compound 0.1 µM): 1650 nM
IC50 (curve of first compound, second compound 0.316 µM): 883 nM
IC50 (curve of first compound, second compound 1 µM): 482 nM
IC50 (curve of first compound, second compound 3.16 µM): 156 nM
IC50 (curve of first compound, second compound 10 µM): < 31.6 nM
SMILES: Cc1nc(N2CCC3(CC2)COC(C)C3N)c(CO)nc1Sc1ccnc(N)c1Cl (stereo not drawn) + C#Cc1c(F)ccc2cc(O)cc(-c3ncc4c(N5CC6CCC(C5)N6)nc(OCC56CCCN5CC(F)C6)nc4c3F)c12
viability, T/C (second compound 0.0316 µM, first compound 0.0316 µM): 104%
viability, T/C (second compound 0.0316 µM, first compound 0.1 µM): 107%
viability, T/C (second compound 0.0316 µM, first compound 0.316 µM): 94.8%
viability, T/C (second compound 0.0316 µM, first compound 1 µM): 88.9%
viability, T/C (second compound 0.0316 µM, first compound 3.16 µM): 76.1%
viability, T/C (second compound 0.0316 µM, first compound 10 µM): 19.1%
viability, T/C (second compound 0.1 µM, first compound 0.0316 µM): 104%
viability, T/C (second compound 0.1 µM, first compound 0.1 µM): 102%
viability, T/C (second compound 0.1 µM, first compound 0.316 µM): 92.3%
viability, T/C (second compound 0.1 µM, first compound 1 µM): 69.5%
viability, T/C (second compound 0.1 µM, first compound 3.16 µM): 25.7%
viability, T/C (second compound 0.1 µM, first compound 10 µM): 4.47%
viability, T/C (second compound 0.316 µM, first compound 0.0316 µM): 99.9%
viability, T/C (second compound 0.316 µM, first compound 0.1 µM): 93.3%
viability, T/C (second compound 0.316 µM, first compound 0.316 µM): 79.2%
viability, T/C (second compound 0.316 µM, first compound 1 µM): 49.8%
viability, T/C (second compound 0.316 µM, first compound 3.16 µM): 7.28%
viability, T/C (second compound 0.316 µM, first compound 10 µM): 4.45%
viability, T/C (second compound 1 µM, first compound 0.0316 µM): 81%
viability, T/C (second compound 1 µM, first compound 0.1 µM): 81.5%
viability, T/C (second compound 1 µM, first compound 0.316 µM): 69.5%
viability, T/C (second compound 1 µM, first compound 1 µM): 16.2%
viability, T/C (second compound 1 µM, first compound 3.16 µM): 7.77%
viability, T/C (second compound 1 µM, first compound 10 µM): 4.16%
viability, T/C (second compound 3.16 µM, first compound 0.0316 µM): 81%
viability, T/C (second compound 3.16 µM, first compound 0.1 µM): 59.2%
viability, T/C (second compound 3.16 µM, first compound 0.316 µM): 35.6%
viability, T/C (second compound 3.16 µM, first compound 1 µM): 11%
viability, T/C (second compound 3.16 µM, first compound 3.16 µM): 9.29%
viability, T/C (second compound 3.16 µM, first compound 10 µM): 6.04%
viability, T/C (second compound 10 µM, first compound 0.0316 µM): 38%
viability, T/C (second compound 10 µM, first compound 0.1 µM): 22.6%
viability, T/C (second compound 10 µM, first compound 0.316 µM): 14.1%
viability, T/C (second compound 10 µM, first compound 1 µM): 13.3%
viability, T/C (second compound 10 µM, first compound 3.16 µM): 8.12%
viability, T/C (second compound 10 µM, first compound 10 µM): 3.97%

IC50 (curve of compound): 43.7 nM [middle of 4 runs]
SMILES: CCc1c2c(nc3ccc(O)cc13)-c1cc3c(c(=O)n1C2)COC(=O)[C@]3(O)CC
viability, T/C (compound 0.000949 µM): 92.4% [middle of 4 runs]
viability, T/C (compound 0.003 µM): 93.4% [middle of 4 runs]
viability, T/C (compound 0.00949 µM): 74.5% [middle of 4 runs]
viability, T/C (compound 0.03 µM): 61.8% [middle of 4 runs]
viability, T/C (compound 0.0949 µM): 30.2% [middle of 4 runs]
viability, T/C (compound 0.3 µM): 19.9% [middle of 4 runs]

IC50 [1]: > 1000 nM
IC50 [2]: > 1000 nM
IC50 [3]: > 1000 nM
IC50 [4]: > 1000 nM
IC50 [5]: > 1000 nM
IC50 [6]: > 1000 nM
SMILES: C=CC(=O)N1CCN(c2nc(OCC3CCCN3C)nc3c(F)c(-c4nc(N)cc(C)c4C(F)(F)F)c(Cl)cc23)C(C)C1 (stereo not drawn) + CCn1c(-c2cccnc2C(C)OC)c2c3cc(ccc31)N1CCOC(CC(NC(=O)C(C(C)C)N(C)C(=O)C3(F)CCN(C(=O)C#CC(C)(C)N(C)C)CC3)C(=O)N3CCCC(N3)C(=O)OCC(C)(C)C2)C1
viability, T/C (second compound 0.000949 µM, first compound 0.00316 µM): 98.9%
viability, T/C (second compound 0.000949 µM, first compound 0.01 µM): 106%
viability, T/C [7]: 106%
viability, T/C [8]: 97%
viability, T/C [9]: 107%
viability, T/C [10]: 95.2%
viability, T/C (second compound 0.003 µM, first compound 0.00316 µM): 111%
viability, T/C (second compound 0.003 µM, first compound 0.01 µM): 104%
viability, T/C [11]: 98.5%
viability, T/C [12]: 92.4%
viability, T/C [13]: 96.1%
viability, T/C [14]: 91.8%
viability, T/C (second compound 0.00949 µM, first compound 0.00316 µM): 101%
viability, T/C (second compound 0.00949 µM, first compound 0.01 µM): 122%
viability, T/C [15]: 97.2%
viability, T/C [16]: 100%
viability, T/C [17]: 101%
viability, T/C [18]: 98.8%
viability, T/C (second compound 0.03 µM, first compound 0.00316 µM): 100%
viability, T/C (second compound 0.03 µM, first compound 0.01 µM): 117%
viability, T/C [19]: 87%
viability, T/C [20]: 96.2%
viability, T/C [21]: 101%
viability, T/C [22]: 106%
viability, T/C (second compound 0.0949 µM, first compound 0.00316 µM): 93.6%
viability, T/C (second compound 0.0949 µM, first compound 0.01 µM): 95.7%
viability, T/C [23]: 103%
viability, T/C [24]: 101%
viability, T/C [25]: 95.6%
viability, T/C [26]: 113%
viability, T/C (second compound 0.3 µM, first compound 0.00316 µM): 100%
viability, T/C (second compound 0.3 µM, first compound 0.01 µM): 109%
viability, T/C [27]: 108%
viability, T/C [28]: 103%
viability, T/C [29]: 94.4%
viability, T/C [30]: 100%

IC50 [1]: 2040 nM
IC50 [2]: 968 nM
IC50 [3]: 450 nM
IC50 [4]: 152 nM
IC50 [5]: 40.1 nM
IC50 [6]: < 31.6 nM
SMILES: NC1c2ccccc2OC12CCN(c1cnc3c(N4CCCc5ncccc54)n[nH]c3n1)CC2 (stereo not drawn) + CCn1c(-c2cc(N3CCN(C)CC3)cnc2C(C)OC)c2c3cc(ccc31)-c1csc(n1)CC(NC(=O)C1CC1C)C(=O)N1CCCC(N1)C(=O)OCC(C)(C)C2
viability, T/C [7]: 93%
viability, T/C [8]: 97.3%
viability, T/C [9]: 88%
viability, T/C [10]: 75.2%
viability, T/C (second compound 0.000949 µM, first compound 3.16 µM): 34.6%
viability, T/C (second compound 0.000949 µM, first compound 10 µM): 15.8%
viability, T/C [11]: 95.2%
viability, T/C [12]: 90.3%
viability, T/C [13]: 81.8%
viability, T/C [14]: 50.8%
viability, T/C (second compound 0.003 µM, first compound 3.16 µM): 8.91%
viability, T/C (second compound 0.003 µM, first compound 10 µM): 4.54%
viability, T/C [15]: 91.7%
viability, T/C [16]: 96.4%
viability, T/C [17]: 67.1%
viability, T/C [18]: 11%
viability, T/C (second compound 0.00949 µM, first compound 3.16 µM): 4.02%
viability, T/C (second compound 0.00949 µM, first compound 10 µM): 2.36%
viability, T/C [19]: 94.4%
viability, T/C [20]: 70.9%
viability, T/C [21]: 13%
viability, T/C [22]: 7.15%
viability, T/C (second compound 0.03 µM, first compound 3.16 µM): 5.36%
viability, T/C (second compound 0.03 µM, first compound 10 µM): 2.24%
viability, T/C [23]: 56.5%
viability, T/C [24]: 25.1%
viability, T/C [25]: 6.77%
viability, T/C [26]: 4.69%
viability, T/C (second compound 0.0949 µM, first compound 3.16 µM): 4.6%
viability, T/C (second compound 0.0949 µM, first compound 10 µM): 2.33%
viability, T/C [27]: 16.5%
viability, T/C [28]: 9.81%
viability, T/C [29]: 5.67%
viability, T/C [30]: 4.89%
viability, T/C (second compound 0.3 µM, first compound 3.16 µM): 4.53%
viability, T/C (second compound 0.3 µM, first compound 10 µM): 2.17%
